Reference: patent US8394792B2, “Heterocyclic derivatives” (C&C Research Laboratories, priority 2008, dated 2013)
Where two headings read alike, the source gives them in different places.

What was measured:
[1] = cited from earlier work; for excretion rate in urine: until 72 hours after administration of benzbromarone
Cebus monkey = assay: Test for uricosuric effect in Cebus monkey; assay type: in vivo; details: for Plasma uric acid level: 4 hours after administration
hURAT1 = target: T1, hURAT1 (Homo sapiens, UniProt Q96S37); assay: Test for inhibiting urate reuptake activity via hURAT1 (uric acid transport assay in hURAT1-overexpressed HEK293 cell line); assay type: cell-based; details: hURAT1-overexpressed HEK293 cells, [14C]-uric acid uptake, 100 μM uric acid; read-out: IC50 (μM) hURAT, level of uric acid reuptake inhibition
T1 construct: expressed in transfected cells; host or cells: HEK293 (human kidney cell line), transient transfection with Fugene6
T1 sequence (Q96S37 1-553): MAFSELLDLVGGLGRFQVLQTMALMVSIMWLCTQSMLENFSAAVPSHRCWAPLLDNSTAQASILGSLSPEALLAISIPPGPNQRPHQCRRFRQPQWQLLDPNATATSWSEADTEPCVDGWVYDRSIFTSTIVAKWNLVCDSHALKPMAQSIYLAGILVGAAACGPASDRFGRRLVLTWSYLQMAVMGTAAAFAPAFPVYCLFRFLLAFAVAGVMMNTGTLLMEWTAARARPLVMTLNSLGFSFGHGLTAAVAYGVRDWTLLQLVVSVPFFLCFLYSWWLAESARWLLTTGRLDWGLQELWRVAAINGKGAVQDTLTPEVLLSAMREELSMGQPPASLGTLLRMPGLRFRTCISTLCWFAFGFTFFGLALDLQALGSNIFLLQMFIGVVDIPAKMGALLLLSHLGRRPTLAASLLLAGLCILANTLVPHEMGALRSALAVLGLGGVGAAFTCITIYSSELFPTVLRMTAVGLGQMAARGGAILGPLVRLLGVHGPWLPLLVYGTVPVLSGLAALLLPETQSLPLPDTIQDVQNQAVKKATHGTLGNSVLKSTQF

[2] = Test for solubility according to pH; assay type: physicochemical; details: 37° C. 2 hours
Protocol: 2.0 g of sodium chloride was dissolved in 7.0 mL of hydrochloric acid and water to make the total volume of 1000 mL. This solution was colorless and clear. Its pH was about 1.2.
To 250 mL of 0.2 mol/L potassium dihydrogen phosphate solution, 118 mL of 0.2 mol/L sodium hydroxide solution and water were added to make the total volume of 1000 mL. This solution was colorless and clear. Its pH was about 6.8.
For the compounds of present invention prepared in the examples, the test samples were prepared in each of the first and second solutions with 2 mg/mL concentration. This test sample solution was agitated for 10 seconds, sonicated for 1 minute and heated at 37° C. for 2 hours. The heated test sample solution was filtered to remove undissolved compounds therein. From filtered solution, 100 μl of the completely dissolved solution was sampled and 100 μl of acetonitrile was added thereto to make test sample solution. For each analysis of test sample solution, the solubility was measured by using liquid chromatography.

CYP2C9 [3] = target: T2, CYP2C9 (Homo sapiens, UniProt P11712); assay: biochemical
T2 sequence (P11712 whole entry): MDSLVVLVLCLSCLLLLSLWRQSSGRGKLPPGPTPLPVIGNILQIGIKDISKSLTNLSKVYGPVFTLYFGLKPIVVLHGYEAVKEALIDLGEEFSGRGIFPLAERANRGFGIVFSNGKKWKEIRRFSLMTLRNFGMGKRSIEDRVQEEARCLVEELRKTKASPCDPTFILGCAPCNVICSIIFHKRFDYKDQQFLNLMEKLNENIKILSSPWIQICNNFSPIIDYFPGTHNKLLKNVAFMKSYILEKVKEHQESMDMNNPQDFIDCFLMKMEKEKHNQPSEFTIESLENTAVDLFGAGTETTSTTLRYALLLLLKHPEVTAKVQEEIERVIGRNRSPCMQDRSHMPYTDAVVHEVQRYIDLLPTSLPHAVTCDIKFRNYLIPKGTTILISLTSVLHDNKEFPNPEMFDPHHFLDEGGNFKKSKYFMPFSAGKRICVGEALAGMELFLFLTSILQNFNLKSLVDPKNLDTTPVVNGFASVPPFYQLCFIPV

CYP2C9 [4] = target: T2, CYP2C9
[5] = 2 tablets (50 mg/tablet) benzbromarone one time, healthy fasting adult
[6] = oral 15 mg/kg, during 0~8 hours

CCc1oc2cc(O)ccc2c1C(=O)c1cc(Br)c(O)c(Br)c1 [6-hydroxy benzbromarone]
half-life of drug [1, 5]: 18.0 ± 2.9 h
maximum concentration of drug (Cmax) [1, 5]: 1700 ± 400 ng/mL
time of maximum drug concentration in blood (Tmax) [1, 5]: 4.8 ± 1.3 h
excretion rate in urine [1]: 1.2 % of the administered amount

CCc1oc2ccccc2c1C(=O)c1cc(Br)c(O)c(Br)c1 [Benzbromarone, reference compound]
Plasma uric acid level (Cebus monkey; oral 15 mg/kg): 3.80 mg/dL
Fractional excretion rate of uric acid (FEua) (Cebus monkey; [6]): 20.0±10.5%
area under the curve (AUC) [1, 5]: 15900 ± 3300 ng·h/mL
half-life of drug [1, 5]: 5.4 ± 1.9 h
time of maximum drug concentration in blood (Tmax) [1, 5]: 2.7 ± 1.0 h
excretion rate in urine [1]: not detected

O=C(c1cc(Br)c(O)c(Br)c1)N1CCOc2ccncc21 [Compound 4, (3,5-dibromo-4-hydroxy-phenyl)-(2,3-dihydro-pyrido[4,3-b][1,4]oxazin-4-yl)-methanone]
IC50 (hURAT1): 0.023 µM
Solubility (μg/mL) pH 1.2 ([2]; first solution pH about 1.2, 2 mg/mL): 1927 μg/mL
Solubility (μg/mL) pH 6.8 ([2]; second solution pH about 6.8, 2 mg/mL): 970 μg/mL
enhanced uricosuric effect compared with Benzbromarone (Cebus monkey; 15 mg/kg, during 0~8 hours): 160%
Plasma uric acid level (Cebus monkey; oral 3.75 mg/kg): 3.88 mg/dL
Fractional excretion rate of uric acid (FEua) (Cebus monkey; oral 3.75 mg/kg, during 0~8 hours): 24.1±13.3%
Plasma uric acid level (Cebus monkey; oral 7.5 mg/kg): 3.66 mg/dL
Fractional excretion rate of uric acid (FEua) (Cebus monkey; oral 7.5 mg/kg, during 0~8 hours): 31.6±13.3%
Plasma uric acid level (Cebus monkey; oral 15 mg/kg): 3.40 mg/dL
Fractional excretion rate of uric acid (FEua) (Cebus monkey; [6]): 33.2±19.8%
IC50 (CYP2C9 [3]): 24.3 µM

O=C(CN1C(=O)COc2ccncc21)c1cc(Br)c(O)c(Br)c1 [Compound 56]
IC50 (CYP2C9 [4]): > 20 µM
